Source: ChEMBL document CHEMBL4392835, “New heteroaryl carbamates: Synthesis and biological screening in vitro and in mammalian cells of wild-type and mutant HIV-protease inhibitors” (Bioorg Med Chem, 2019)
Calls of active or inactive are those of the source. The calls are words filed in the database; no cut-off is given here.

Tests used:
[1] = target: Protease (Human immunodeficiency virus 1) (UniProt Q9YQ12); experiment: Inhibition of GFP-tagged HIV1 protease transfected in HEK293 cells at 10 to 30 uM incubated for 24 hrs by FACS analysis; type: cell-based
Chain of Protease (Human immunodeficiency virus 1) (Q9YQ12 as listed by the source): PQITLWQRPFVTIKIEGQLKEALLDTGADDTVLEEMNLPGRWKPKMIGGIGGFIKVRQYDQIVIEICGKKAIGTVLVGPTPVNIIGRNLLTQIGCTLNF

[2] = target: Protease (Human immunodeficiency virus 1) (UniProt Q9YQ12); experiment: Inhibition of GFP-tagged HIV1 protease transfected in HEK293 cells at 30 uM incubated for 24 hrs by fluorescence microscopy; type: cell-based
[3] = system: Protease (Human immunodeficiency virus 1), Q9YQ12 [V32I]; experiment: Inhibition of GFP-tagged HIV1 protease V32I mutant transfected in HEK293 cells at 30 uM incubated for 24 hrs by fluorescence microscopy; type: cell-based
Chain of Protease (Human immunodeficiency virus 1), Q9YQ12 [V32I] (Q9YQ12 entry or part of it V32I): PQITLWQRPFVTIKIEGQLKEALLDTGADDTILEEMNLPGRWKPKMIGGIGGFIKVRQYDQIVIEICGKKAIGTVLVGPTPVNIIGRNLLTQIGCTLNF

[4] = Intrinsic clearance in human liver microsomes assessed per mg protein; type: ADME, Microsome; settings: read-out: CLH
[5] = Intrinsic clearance in rat liver microsomes assessed per mg protein; type: ADME, Microsome; settings: read-out: CLH
[6] = target: Protease (Human immunodeficiency virus 1) (UniProt Q9YQ12); experiment: Inhibition of GFP-tagged HIV1 protease transfected in HEK293 cells at 10 uM incubated for 24 hrs by fluorescence microscopy; type: cell-based
[7] = target: Protease (Human immunodeficiency virus 1) (UniProt Q9YQ12); experiment: Inhibition of GFP-tagged HIV1 protease transfected in HEK293 cells at 30 uM incubated for 24 hrs by FACS analysis; type: cell-based
[8] = Cytotoxicity in HEK293 cells assessed as reduction in cell viability after 24 hrs by MTT assay; type: cell-based; settings: human
[9] = Inhibition of HIV protease assessed as reduction in enzyme-mediated substrate hydrolysis using Abz-Thr-Ile-Nle-Phe(NO2)-Gln-Arg fluorogenic substrate; design: species or system Human immunodeficiency virus
[10] = Cytotoxicity in HEK293 cells assessed as reduction in cell viability by MTT assay; type: cell-based; settings: human
[11] = system: Protease (Human immunodeficiency virus 1), Q9YQ12 [V82A]; experiment: Inhibition of GFP-tagged HIV1 protease V82A mutant transfected in HEK293 cells at 30 uM incubated for 24 hrs by fluorescence microscopy; type: cell-based
Chain of Protease (Human immunodeficiency virus 1), Q9YQ12 [V82A] (Q9YQ12 entry or part of it V82A): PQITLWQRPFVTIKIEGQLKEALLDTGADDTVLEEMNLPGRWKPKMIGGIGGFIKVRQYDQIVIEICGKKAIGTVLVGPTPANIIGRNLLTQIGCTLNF

[12] = target: Protease (Human immunodeficiency virus 1) (UniProt Q9YQ12); experiment: Inhibition of GFP-tagged HIV1 protease transfected in HEK293 cells at 10 uM incubated for 24 hrs by FACS analysis; type: cell-based
[13] = system: Protease (Human immunodeficiency virus 1), Q9YQ12 [V82A]; experiment: Inhibition of GFP-tagged HIV1 protease V82A mutant transfected in HEK293 cells at 10 uM incubated for 24 hrs by fluorescence microscopy; type: cell-based
[14] = system: Protease (Human immunodeficiency virus 1), Q9YQ12 [V32I]; experiment: Inhibition of GFP-tagged HIV1 protease V32I mutant transfected in HEK293 cells at 10 uM incubated for 24 hrs by fluorescence microscopy; type: cell-based

Row | SMILES | inhibition [1] | inhibition call (active/not active) [2] | IC50 [9] [µM] | inhibition [3] | microsomal CLint [4] [µL/min/mg] | microsomal CLint [5] [µL/min/mg] | inhibition [6] | inhibition [7] | CC50 at 24 h [8] [µM] | CC50 [10] [µM] | inhibition [11] | inhibition [12] | inhibition [13] | inhibition [14]
1 | CC(C)CN(C[C@@H](O)[C@H](Cc1ccccc1)NC(=O)O[C@H]1CO[C@H]2OCC[C@H]21)S(=O)(=O)c1ccc(N)cc1 | Active | Active | – | – | – | – | – | – | – | – | – | – | – | –
2 | COc1ccc(S(=O)(=O)N(CC(C)C)C[C@@H](O)[C@H](Cc2ccccc2)NC(=O)Oc2ccc3occc3c2)cc1 | Active | Active | ≤ 0.0006 | Active | 121 | 26.8 | Active | Active | > 60 | > 100 | Active | – | – | –
3 | COc1ccc(S(=O)(=O)N(CC(C)C)C[C@@H](O)CNC(=O)Oc2ccc3occc3c2)cc1 | inactive | inactive | 15.4 | – | – | – | – | – | > 60 | – | – | – | – | –
4 | COc1ccc(S(=O)(=O)N(CC(C)C)C[C@@H](O)[C@H](Cc2ccccc2)NC(=O)Oc2ccc3[nH]ccc3c2)cc1 | Active | Active | ≤ 0.0006 | – | 548 | 522 | – | – | > 60 | 2.8 | – | Active | Active | Active

Further lines, with some results ahead:

Row | inhibition [1] | inhibition call (active/not active) [2] | IC50 [9] [µM] | SMILES | inhibition [3] | microsomal CLint [4] [µL/min/mg] | microsomal CLint [5] [µL/min/mg] | inhibition [6] | inhibition [7] | CC50 at 24 h [8] [µM] | CC50 [10] [µM] | inhibition [11] | inhibition [12] | inhibition [13] | inhibition [14]
5 | inactive | inactive | 13.4 | COc1ccc(S(=O)(=O)N(CC(C)C)C[C@@H](O)CNC(=O)Oc2ccc3[nH]ccc3c2)cc1 | – | – | – | – | – | > 60 | – | – | – | – | –
6 | inactive | inactive | 0.049 | COc1ccc(S(=O)(=O)N(CC(C)C)C[C@@H](O)CNC(=O)Oc2ccc3sccc3c2)cc1 | – | – | – | – | – | > 60 | > 100 | – | – | – | –
7 | inactive | inactive | 0.0108 | COc1ccc(S(=O)(=O)N(CC(C)C)C[C@@H](O)[C@H](Cc2ccccc2)NC(=O)Oc2ccc3sccc3c2)cc1 | – | – | – | – | – | > 60 | – | – | – | – | –
